Experimental findings from ChEMBL document CHEMBL4017496 (J Med Chem, 2017) are described below.

The target of assay [1] is T1, Peroxisome proliferator-activated receptor alpha (Homo sapiens) (UniProt Q07869).
T1 sequence (whole entry): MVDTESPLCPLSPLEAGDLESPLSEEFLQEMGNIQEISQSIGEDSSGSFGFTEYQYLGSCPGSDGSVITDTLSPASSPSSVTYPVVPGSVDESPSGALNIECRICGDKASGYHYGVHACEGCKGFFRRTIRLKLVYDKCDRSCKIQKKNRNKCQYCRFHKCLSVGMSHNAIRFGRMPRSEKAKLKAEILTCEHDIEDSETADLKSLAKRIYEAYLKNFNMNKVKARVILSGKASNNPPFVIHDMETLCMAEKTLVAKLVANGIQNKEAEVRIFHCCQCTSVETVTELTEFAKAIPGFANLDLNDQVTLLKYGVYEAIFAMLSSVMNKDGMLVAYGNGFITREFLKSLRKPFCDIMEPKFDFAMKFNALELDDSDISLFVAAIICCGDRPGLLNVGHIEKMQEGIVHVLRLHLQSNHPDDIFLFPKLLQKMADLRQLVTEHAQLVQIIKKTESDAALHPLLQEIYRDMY
The assay can be described thus: Displacement of Fluormone-Pan-PPAR Green from human GST-tagged PPARalpha LBD at 4 uM by TR-FRET assay relative to control. For orientation: Time-resolved FRET reads energy transfer from a long-lived donor to a nearby acceptor.

Assay [2] concerns the target T2, Oxysterols receptor LXR-alpha (Homo sapiens) (UniProt Q13133).
T2 sequence (whole entry): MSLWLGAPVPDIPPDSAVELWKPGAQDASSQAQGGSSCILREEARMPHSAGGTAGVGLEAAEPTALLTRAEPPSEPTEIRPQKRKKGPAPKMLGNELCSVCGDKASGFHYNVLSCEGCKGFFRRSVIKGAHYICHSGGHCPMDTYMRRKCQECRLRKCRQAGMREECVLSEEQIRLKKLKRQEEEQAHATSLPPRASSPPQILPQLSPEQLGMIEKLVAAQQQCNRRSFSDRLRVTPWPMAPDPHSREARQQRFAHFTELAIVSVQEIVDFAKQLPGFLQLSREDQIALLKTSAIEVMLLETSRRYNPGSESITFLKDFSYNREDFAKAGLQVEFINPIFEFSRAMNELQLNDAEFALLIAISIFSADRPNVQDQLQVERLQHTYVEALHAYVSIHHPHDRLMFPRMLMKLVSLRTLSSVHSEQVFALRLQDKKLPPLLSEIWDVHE
In words: Binding affinity to human LXRalpha at 4 uM by TR-FRET assay.

Assay [3] addresses T3, Glucocorticoid receptor (Homo sapiens) (UniProt P04150).
T3 sequence (whole entry): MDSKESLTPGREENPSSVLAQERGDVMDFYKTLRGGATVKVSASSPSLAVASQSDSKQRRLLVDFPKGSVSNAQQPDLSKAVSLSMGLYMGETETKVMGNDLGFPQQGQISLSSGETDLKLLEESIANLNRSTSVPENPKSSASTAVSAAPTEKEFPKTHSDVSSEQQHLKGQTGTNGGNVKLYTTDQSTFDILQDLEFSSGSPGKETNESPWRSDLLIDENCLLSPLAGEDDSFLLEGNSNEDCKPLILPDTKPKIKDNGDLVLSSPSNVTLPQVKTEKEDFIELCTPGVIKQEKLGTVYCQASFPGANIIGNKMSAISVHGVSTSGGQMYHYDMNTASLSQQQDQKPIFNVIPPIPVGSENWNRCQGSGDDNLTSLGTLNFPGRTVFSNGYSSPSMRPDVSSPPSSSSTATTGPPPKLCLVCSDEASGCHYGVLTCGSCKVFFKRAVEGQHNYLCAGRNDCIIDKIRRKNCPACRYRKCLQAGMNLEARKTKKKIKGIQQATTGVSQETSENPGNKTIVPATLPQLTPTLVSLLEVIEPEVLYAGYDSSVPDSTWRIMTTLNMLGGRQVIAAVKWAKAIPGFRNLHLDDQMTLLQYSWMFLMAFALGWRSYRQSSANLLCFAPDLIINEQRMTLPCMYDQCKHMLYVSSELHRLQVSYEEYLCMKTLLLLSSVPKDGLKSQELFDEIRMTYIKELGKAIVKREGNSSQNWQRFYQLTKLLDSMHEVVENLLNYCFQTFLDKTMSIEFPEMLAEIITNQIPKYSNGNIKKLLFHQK
In words: Displacement of Fluormone-GS1 from human GST-tagged glucocorticoid receptor LBD at 4 uM by TR-FRET assay.

A short description of assay [4]: Induction of adipogenesis in human bone marrow-derived mesenchymal stem cells assessed as adiponectin level at 20 uM measured on day 7 after 48 hrs by ELISA. It counts as functional, Mesenchymal stem cell.
The target of assay [5] is T4, Peroxisome proliferator-activated receptor delta (Homo sapiens, UniProt Q03181).
T4 sequence (Q03181 whole entry): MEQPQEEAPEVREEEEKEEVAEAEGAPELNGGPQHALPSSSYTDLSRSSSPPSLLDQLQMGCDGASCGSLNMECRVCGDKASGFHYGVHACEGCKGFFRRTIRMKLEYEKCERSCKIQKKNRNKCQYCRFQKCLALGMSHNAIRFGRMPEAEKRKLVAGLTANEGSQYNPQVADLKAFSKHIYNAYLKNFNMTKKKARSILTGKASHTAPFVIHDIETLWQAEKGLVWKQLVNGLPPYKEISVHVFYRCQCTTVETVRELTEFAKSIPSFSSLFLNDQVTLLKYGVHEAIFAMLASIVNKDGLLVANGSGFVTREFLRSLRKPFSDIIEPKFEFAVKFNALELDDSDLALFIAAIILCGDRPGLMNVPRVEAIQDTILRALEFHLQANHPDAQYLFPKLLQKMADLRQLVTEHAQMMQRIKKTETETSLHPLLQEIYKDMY
The assay can be described thus: Displacement of Fluormone-Pan-PPAR Green from human GST-tagged PPARdelta LBD by TR-FRET assay.

For assay [6], the target named is T5, Peroxisome proliferator-activated receptor gamma (Homo sapiens, UniProt P37231).
T5 sequence (P37231 whole entry): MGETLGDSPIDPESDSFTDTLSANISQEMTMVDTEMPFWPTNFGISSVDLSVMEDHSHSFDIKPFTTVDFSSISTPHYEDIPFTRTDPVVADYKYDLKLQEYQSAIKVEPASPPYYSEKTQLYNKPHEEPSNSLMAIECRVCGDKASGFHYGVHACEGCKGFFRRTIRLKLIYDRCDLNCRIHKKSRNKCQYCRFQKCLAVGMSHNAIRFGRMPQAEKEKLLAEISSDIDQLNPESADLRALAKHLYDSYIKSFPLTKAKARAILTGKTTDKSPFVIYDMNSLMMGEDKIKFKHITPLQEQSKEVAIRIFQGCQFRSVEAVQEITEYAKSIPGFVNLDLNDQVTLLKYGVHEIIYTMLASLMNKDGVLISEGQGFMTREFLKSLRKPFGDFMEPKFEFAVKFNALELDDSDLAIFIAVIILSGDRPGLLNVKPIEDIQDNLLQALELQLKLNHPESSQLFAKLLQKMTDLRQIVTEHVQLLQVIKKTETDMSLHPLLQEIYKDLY
The assay can be described thus: (§1) Displacement of Fluormone-Pan-PPAR Green from human GST-tagged PPARgamma LBD by TR-FRET assay.

In assay [7] the target is T6, Peroxisome proliferator-activated receptor gamma (Homo sapiens) (UniProt P37231).
T6 sequence (whole entry): T5 sequence (P37231 whole entry)
The assay is described as §1.

In assay [8] the target is T7, Oxysterols receptor LXR-beta (Homo sapiens) (UniProt P55055).
T7 sequence (whole entry): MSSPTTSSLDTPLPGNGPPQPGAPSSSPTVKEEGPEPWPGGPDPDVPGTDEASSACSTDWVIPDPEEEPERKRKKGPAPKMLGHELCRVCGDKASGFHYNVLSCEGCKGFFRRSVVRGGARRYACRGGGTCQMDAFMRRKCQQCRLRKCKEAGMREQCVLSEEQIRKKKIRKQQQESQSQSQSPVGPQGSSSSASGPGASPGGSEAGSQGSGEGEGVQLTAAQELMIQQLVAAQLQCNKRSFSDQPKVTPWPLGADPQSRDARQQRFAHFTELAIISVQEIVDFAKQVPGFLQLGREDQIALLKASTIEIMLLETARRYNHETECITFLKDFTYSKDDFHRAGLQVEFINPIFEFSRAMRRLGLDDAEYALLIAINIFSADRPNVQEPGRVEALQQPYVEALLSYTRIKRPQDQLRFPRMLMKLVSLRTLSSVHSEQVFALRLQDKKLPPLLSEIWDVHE
The assay can be described thus: Binding affinity to human LXRbeta at 4 uM by TR-FRET assay.

Assay [9] addresses T1, Peroxisome proliferator-activated receptor alpha (Homo sapiens). The assay can be described thus: Displacement of Fluormone-Pan-PPAR Green from human GST-tagged PPARalpha LBD at 20 uM by TR-FRET assay relative to control.
Assay [10] is described as follows: Induction of adipogenesis in human bone marrow-derived mesenchymal stem cells assessed as adiponectin level at 4 uM measured on day 7 after 48 hrs by ELISA. In kind it is functional, Mesenchymal stem cell. On the technique in general: An ELISA detects its analyte on a solid surface through an enzyme-linked reagent.
The target in assay [11] is T6, Peroxisome proliferator-activated receptor gamma (Homo sapiens). In words: Displacement of Fluormone-Pan-PPAR Green from human GST-tagged PPARgamma LBD at 4 uM by TR-FRET assay relative to control.
Assay [12] has as its target T8, Peroxisome proliferator-activated receptor delta (Homo sapiens) (UniProt Q03181).
T8 sequence (whole entry): T4 sequence (Q03181 whole entry)
In words: Displacement of Fluormone-Pan-PPAR Green from human GST-tagged PPARdelta LBD at 4 uM by TR-FRET assay relative to control.

In assay [13] the test system is Mesenchymal stem cell. In words: Inhibition of adipogenesis in human bone marrow-derived mesenchymal stem cells assessed as decrease in number and size of lipid droplets at 1 mM after 7 days in presence of IDX by oil red O staining based inverted microscopic method. In kind it is functional.
In assay [14] the test system is Mesenchymal stem cell. In words: Inhibition of adipogenesis in human bone marrow-derived mesenchymal stem cells at 1 mM after 7 days in presence of IDX. It counts as functional, cell-based.

Calls of active or inactive are those of the source. No cut-off for these calls is given here.

Usually inhibition stands for the change of the read-out against control, counted positive when it falls. The Ki is a measure of affinity in units of concentration, obtained from inhibition or displacement. A high value points to lower affinity.

For the compound `CNC(=O)[C@H]1O[C@@H](n2cnc3c(NCc4cccc(I)c4)nc(Cl)nc32)[C@H](O)[C@@H]1O` [NAMODENOSON], the inhibition entry in assay [1] and in assay [3] was “inactive” throughout. Moreover, the result in [2] and in assay [8] was inactive. Moreover, the Activity came to 603 pg/mL in assay [4] and 221 pg/mL in [10]. The Ki in assay [5] turned out to be 430 nM; in assay [6] it was 2180 nM. Further, the inhibition entry in [7] was “Dose-dependent effect”; in assay [9] it was 46.5%; in [11], 59%; in assay [12], 75%.

Take `Cn1c(=O)c2c(ncn2C)n(C)c1=O`: the inhibition result in the assay with Mesenchymal stem cell [13] and with Mesenchymal stem cell [14] was “Active” in each case.
